Active and inactive are the calls of the source. The calls are words filed in the database; no cut-off is given here.
tested on: not listed separately; experiment: Selectivity index, ratio of CC50 for human HuH7-J20 cells expressing secreted alkaline phosphatase reporter gene incubated for 1 hr to EC50 for HCV JFH1 infected in human HuH7-J20 cells preincubated with cells for 1 hr followed by viral inoculation for 3 hrs measured at 72 hrs; set-up: species or system Huh-7; settings: not given

SMILES | Ratio CC50/EC50
Cc1ccc(N2CCN(C(=O)NC(=N)Nc3ccccc3)CC2)cc1.Cl | 2.82
Cl.N=C(N)NC(=O)NCc1ccccc1 | 6.23
Cl.N=C(NCc1ccccc1)NC(=O)N1CCN(c2ccc(Cl)cc2)CC1 | 1.4
Cl.N=C(NC(=O)N1CCN(c2cc(Cl)cc(Cl)c2)CC1)Nc1ccc(Cl)cc1 | 6.06
Cl.N=C(NC(=O)N1CCN(c2ccccc2)CC1)Nc1ccccc1 | 0.5
NC(=O)c1ncn([C@@H]2O[C@H](CO)[C@@H](O)[C@H]2O)n1 [RIBAVIRIN] | >1
CC(C)(C)OC(=O)NC(=N)NC(=O)NCc1ccccc1 | 4.25
Cl.N=C(NC(=O)N1CCN(c2ccccc2)CC1)Nc1ccc(Cl)cc1 | >2.68
Cl.N=C(NC(=O)N1CCN(c2ccc(C34CC5CC(CC(C5)C3)C4)cc2)CC1)Nc1ccc(Cl)cc1 | 7.45

tested on: Hepatitis C virus; experiment: Antiviral activity against HCV JFH1 infected in human HuH7-J20 cells assessed as inhibition of viral life cycle by measuring secreted alkaline phosphatase level preincubated with cells for 1 hr followed by viral inoculation for 3 hrs and fresh drug administration every 24 hrs at 1/10th of initial concentration for 48 hrs measured at 72 hrs; type: functional, cell-based, Hepacivirus hominis; settings: genotype 2a JFH-1, Huh-7

SMILES | EC50
Cc1ccc(N2CCN(C(=O)NC(=N)Nc3ccccc3)CC2)cc1.Cl | 4.7 µM
Cl.N=C(N)NC(=O)NCc1ccccc1 | 35.3 µM
Cl.N=C(NCc1ccccc1)NC(=O)N1CCN(c2ccc(Cl)cc2)CC1 | 2.41 µM
Cl.N=C(NC(=O)N1CCN(c2cc(Cl)cc(Cl)c2)CC1)Nc1ccc(Cl)cc1 | 1.69 µM
Cl.N=C(NC(=O)N1CCN(c2ccccc2)CC1)Nc1ccccc1 | 8.7 µM
NC(=O)c1ncn([C@@H]2O[C@H](CO)[C@@H](O)[C@H]2O)n1 [RIBAVIRIN] | 33.5 µM
CC(C)(C)OC(=O)NC(=N)NC(=O)NCc1ccccc1 | 6.17 µM
Cl.N=C(NC(=O)N1CCN(c2ccccc2)CC1)Nc1ccc(Cl)cc1 | 1.3 µM
Cl.N=C(NC(=O)N1CCN(c2ccc(C34CC5CC(CC(C5)C3)C4)cc2)CC1)Nc1ccc(Cl)cc1 | 13.9 µM

tested on: not listed separately; experiment: Cytotoxicity against human HuH7 assessed as cell viability after 24 hrs by WST-1 assay; type: cell-based; settings: huh-7, 24 h

SMILES | Activity
Cl.N=C(NCc1ccccc1)NC(=O)N1CCN(c2ccc(Cl)cc2)CC1 | Non-toxic
Cl.N=C(NC(=O)N1CCN(c2cc(Cl)cc(Cl)c2)CC1)Nc1ccc(Cl)cc1 | Non-toxic
CC(C)(C)OC(=O)NC(=N)NC(=O)NCc1ccccc1 | Non-toxic
Cl.N=C(NC(=O)N1CCN(c2ccccc2)CC1)Nc1ccc(Cl)cc1 | Non-toxic
Cl.N=C(NC(=O)N1CCN(c2ccc(C34CC5CC(CC(C5)C3)C4)cc2)CC1)Nc1ccc(Cl)cc1 | Non-toxic

tested on: not listed separately; experiment: Selectivity index, ratio of CC50 for human HuH7-J20 cells expressing secreted alkaline phosphatase reporter gene preincubated for 1 hr followed by fresh drug administration every 24 hrs for 48 hrs to EC50 for HCV JFH1 infected in human HuH7-J20 cells preincubated with cells for 1 hr followed by viral inoculation for 3 hrs and fresh drug administration every 24 hrs at 1/10th of initial concentration for 48 hrs measured at 72 hrs; set-up: species or system Huh-7; settings: not given

SMILES | Ratio CC50/EC50
Cc1ccc(N2CCN(C(=O)NC(=N)Nc3ccccc3)CC2)cc1.Cl | 4.4
Cl.N=C(N)NC(=O)NCc1ccccc1 | 9.19
Cl.N=C(NCc1ccccc1)NC(=O)N1CCN(c2ccc(Cl)cc2)CC1 | 14.4
Cl.N=C(NC(=O)N1CCN(c2cc(Cl)cc(Cl)c2)CC1)Nc1ccc(Cl)cc1 | 20.2
Cl.N=C(NC(=O)N1CCN(c2ccccc2)CC1)Nc1ccccc1 | >3.4
NC(=O)c1ncn([C@@H]2O[C@H](CO)[C@@H](O)[C@H]2O)n1 [RIBAVIRIN] | 0.91
CC(C)(C)OC(=O)NC(=N)NC(=O)NCc1ccccc1 | 7.99
Cl.N=C(NC(=O)N1CCN(c2ccccc2)CC1)Nc1ccc(Cl)cc1 | 30.4
Cl.N=C(NC(=O)N1CCN(c2ccc(C34CC5CC(CC(C5)C3)C4)cc2)CC1)Nc1ccc(Cl)cc1 | 5.54

tested on: not listed separately; experiment: Cytotoxicity against human HuH7-J20 cells expressing secreted alkaline phosphatase reporter gene assessed as cell viability at 10 uM incubated for 1 hr by WST-1 assay; type: cell-based; settings: huh-7, 1 h

SMILES | Activity
Cl.N=C(NC(=O)N1CCN(c2ccc([N+](=O)[O-])cc2)CC1)Nc1ccc(Cl)cc1 | Non-toxic
Cl.N=C(NCc1ccccc1)NC(=O)N1CCN(c2ccccc2)CC1 | Non-toxic
Cl.N=C(N)NC(=O)NCCCCN | Non-toxic
CCOC(=O)CNC(=O)NC(=N)NC(=O)OC(C)(C)C | Non-toxic
CCOC(=O)CNC(=O)NC(=N)N.Cl | Non-toxic
C=CCNC(=O)NC(=N)NCc1ccccc1.Cl | Non-toxic
Cl.N=C(NC(=O)N1CCN(c2ccc(Cl)cc2)CC1)Nc1ccccc1 | Non-toxic
Cc1ccc(N2CCN(C(=O)NC(=N)Nc3ccc(Cl)cc3)CC2)cc1.Cl | Non-toxic
Cl.N=C(NCc1ccccc1)NC(=O)N1CCCC1 | Non-toxic
CC(C)(C)OC(=O)/N=C(\NCc1ccccc1)NC(=O)N1CCN(c2ccccc2)CC1 | Non-toxic
Cl.N=C(NCc1ccccc1)NC(=O)N1CCOCC1 | Non-toxic
Cl.N=C(N)NC(=O)N1CCOCC1 | Non-toxic
Cl.N=C(NC(=O)N1CCN(c2ccc([N+](=O)[O-])cc2)CC1)Nc1ccccc1 | Non-toxic
CC(C)(C)OC(=O)/N=C(\NCc1ccccc1)NC(=O)N1CCOCC1 | Non-toxic
Cl.N=C(NCc1ccccc1)NC(=O)N1CCN(c2ccc(F)cc2)CC1 | Non-toxic

tested on: Hepatitis C virus; experiment: Antiviral activity against HCV pseudotyped particles infected in human HuH7 cells assessed as reduction of viral entry preincubated with cells for 1 hr followed by viral inoculation for 3 hrs by luciferase reporter gene assay; type: functional, organism-based; settings: Hepacivirus hominis; Huh-7

SMILES | Activity
Cl.N=C(NC(=O)N1CCN(c2ccc([N+](=O)[O-])cc2)CC1)Nc1ccc(Cl)cc1 | inactive
Cl.N=C(NCc1ccccc1)NC(=O)N1CCN(c2ccccc2)CC1 | inactive
Cc1ccc(N2CCN(C(=O)NC(=N)Nc3ccccc3)CC2)cc1.Cl | inactive
C=CCNC(=O)NC(=N)NCc1ccccc1.Cl | inactive
Cl.N=C(NCc1ccccc1)NC(=O)N1CCN(c2ccc(Cl)cc2)CC1 | inactive
Cl.N=C(NC(=O)N1CCN(c2cc(Cl)cc(Cl)c2)CC1)Nc1ccc(Cl)cc1 | inactive
Cl.N=C(NC(=O)N1CCN(c2ccc(Cl)cc2)CC1)Nc1ccccc1 | inactive
Cl.N=C(NC(=O)N1CCN(c2ccccc2)CC1)Nc1ccccc1 | inactive
Cl.N=C(NC(=O)N1CCN(c2ccccc2)CC1)Nc1ccc(Cl)cc1 | inactive
Cc1ccc(N2CCN(C(=O)NC(=N)Nc3ccc(Cl)cc3)CC2)cc1.Cl | inactive
Cl.N=C(NCc1ccccc1)NC(=O)N1CCCC1 | inactive
Cl.N=C(NCc1ccccc1)NC(=O)N1CCOCC1 | inactive
Cl.N=C(NC(=O)N1CCN(c2ccc([N+](=O)[O-])cc2)CC1)Nc1ccccc1 | inactive
Cl.N=C(NC(=O)N1CCN(c2ccc(C34CC5CC(CC(C5)C3)C4)cc2)CC1)Nc1ccc(Cl)cc1 | inactive
Cl.N=C(NCc1ccccc1)NC(=O)N1CCN(c2ccc(F)cc2)CC1 | inactive

tested on: not listed separately; experiment: Cytotoxicity against human HuH7-J20 cells expressing secreted alkaline phosphatase reporter gene assessed as cell viability incubated for 1 hr by WST-1 assay; type: cell-based, Huh-7; settings: not given

SMILES | CC50 at 1 h
Cc1ccc(N2CCN(C(=O)NC(=N)Nc3ccccc3)CC2)cc1.Cl | 26.4 µM
Cl.N=C(N)NC(=O)NCc1ccccc1 | 324 µM
Cl.N=C(NCc1ccccc1)NC(=O)N1CCN(c2ccc(Cl)cc2)CC1 | 64 µM
Cl.N=C(NC(=O)N1CCN(c2cc(Cl)cc(Cl)c2)CC1)Nc1ccc(Cl)cc1 | 63 µM
Cl.N=C(NC(=O)N1CCN(c2ccccc2)CC1)Nc1ccccc1 | > 30 µM
NC(=O)c1ncn([C@@H]2O[C@H](CO)[C@@H](O)[C@H]2O)n1 [RIBAVIRIN] | > 30 µM
CC(C)(C)OC(=O)NC(=N)NC(=O)NCc1ccccc1 | 92.9 µM
Cl.N=C(NC(=O)N1CCN(c2ccccc2)CC1)Nc1ccc(Cl)cc1 | > 30 µM
Cl.N=C(NC(=O)N1CCN(c2ccc(C34CC5CC(CC(C5)C3)C4)cc2)CC1)Nc1ccc(Cl)cc1 | 73 µM

tested on: Hepatitis C virus; experiment: Antiviral activity against HCV JFH1 infected in human HuH7-J20 cells assessed as inhibition of viral life cycle by measuring secreted alkaline phosphatase level […] preincubated with cells for 1 hr followed by viral inoculation for 3 hrs measured at 72 hrs relative to control; type: functional; settings: Hepacivirus hominis; genotype 2a JFH-1; Huh-7

SMILES | inhibition
N=C(N)NC(=N)N1CCN(c2ccccc2)CC1 | inactive
N=C(N)NC(=N)Nc1ccccc1 | inactive
N=C(N)NC(=N)NCc1ccccc1 | inactive
N=C(N)NC(=N)Nc1ccc(F)cc1 | inactive

tested on: Hepatitis C virus; experiment: Ratio of EC50 for HCV JFH1 infected in human HuH7-J20 cells preincubated with cells for 1 hr followed by viral inoculation for 3 hrs measured at 72 hrs to EC50 for HCV JFH1 infected in human HuH7-J20 cells preincubated with cells for 1 hr followed by viral inoculation for 3 hrs and fresh drug administration every 24 hrs at 1/10th of initial concentration for 48 hrs measured at 72 hrs; type: functional, Hepacivirus hominis, genotype 2a JFH-1, Huh-7; settings: not given

SMILES | Ratio EC50
CC(C)(C)OC(=O)NC(=N)NC(=O)NCc1ccccc1 | 3

tested on: Hepatitis C virus; experiment: Antiviral activity against HCV JFH1 infected in human HuH7-J20 cells assessed as inhibition of viral life cycle by measuring secreted alkaline phosphatase level preincubated with cells for 1 hr followed by viral inoculation for 3 hrs measured at 72 hrs; type: functional, cell-based; settings: Hepacivirus hominis; genotype 2a JFH-1; Huh-7

SMILES | inhibition
N=C(N)NC(=N)N1CCOCC1 | inactive

same assay, conditions: genotype 2a JFH-1, Huh-7

SMILES | EC50
Cc1ccc(N2CCN(C(=O)NC(=N)Nc3ccccc3)CC2)cc1.Cl | 9.35 µM
Cl.N=C(N)NC(=O)NCc1ccccc1 | 52 µM
Cl.N=C(NCc1ccccc1)NC(=O)N1CCN(c2ccc(Cl)cc2)CC1 | 45.7 µM
Cl.N=C(NC(=O)N1CCN(c2cc(Cl)cc(Cl)c2)CC1)Nc1ccc(Cl)cc1 | 10.4 µM
Cl.N=C(NC(=O)N1CCN(c2ccccc2)CC1)Nc1ccccc1 | 59.5 µM
NC(=O)c1ncn([C@@H]2O[C@H](CO)[C@@H](O)[C@H]2O)n1 [RIBAVIRIN] | 30.4 µM
CC(C)(C)OC(=O)NC(=N)NC(=O)NCc1ccccc1 | 21.9 µM
Cl.N=C(NC(=O)N1CCN(c2ccccc2)CC1)Nc1ccc(Cl)cc1 | 11.2 µM
Cl.N=C(NC(=O)N1CCN(c2ccc(C34CC5CC(CC(C5)C3)C4)cc2)CC1)Nc1ccc(Cl)cc1 | 9.8 µM

tested on: not listed separately; experiment: Cytotoxicity against human HuH7-J20 cells expressing secreted alkaline phosphatase reporter gene assessed as cell viability preincubated for 1 hr followed by fresh drug administration every 24 hrs at 1/10th of initial concentration for 48 hrs by WST-1 assay; type: cell-based, Huh-7; settings: not given

SMILES | CC50 at 48 h
Cc1ccc(N2CCN(C(=O)NC(=N)Nc3ccccc3)CC2)cc1.Cl | 21 µM
Cl.N=C(N)NC(=O)NCc1ccccc1 | 325 µM
Cl.N=C(NCc1ccccc1)NC(=O)N1CCN(c2ccc(Cl)cc2)CC1 | 34.7 µM
Cl.N=C(NC(=O)N1CCN(c2cc(Cl)cc(Cl)c2)CC1)Nc1ccc(Cl)cc1 | 34.2 µM
Cl.N=C(NC(=O)N1CCN(c2ccccc2)CC1)Nc1ccccc1 | > 30 µM
NC(=O)c1ncn([C@@H]2O[C@H](CO)[C@@H](O)[C@H]2O)n1 [RIBAVIRIN] | 30.5 µM
CC(C)(C)OC(=O)NC(=N)NC(=O)NCc1ccccc1 | 49.3 µM
Cl.N=C(NC(=O)N1CCN(c2ccccc2)CC1)Nc1ccc(Cl)cc1 | 39.7 µM
Cl.N=C(NC(=O)N1CCN(c2ccc(C34CC5CC(CC(C5)C3)C4)cc2)CC1)Nc1ccc(Cl)cc1 | 77 µM

tested on: Hepatitis C virus; experiment: Antiviral activity against HCV JFH1 sub genomic replicon infected in human HuH7 cells assessed as inhibition of viral RNA replication at 10 uM measured after 24 hrs by luciferase reporter gene assay; type: functional, Hepacivirus hominis; settings: genotype 2a JFH-1, Huh-7, 24 h

SMILES | inhibition at 10 µM
Cl.N=C(NCc1ccccc1)NC(=O)N1CCN(c2ccc(Cl)cc2)CC1 | ≤ 50%
Cl.N=C(NC(=O)N1CCN(c2ccccc2)CC1)Nc1ccc(Cl)cc1 | ≤ 50%

Source: ChEMBL document CHEMBL3627618, “Rethinking the old antiviral drug moroxydine: Discovery of novel analogues as anti-hepatitis C virus (HCV) agents” (Bioorg Med Chem Lett, 2015)
